Test results published in EP2676962A1, “Derivatives of 1-aminoalkylphosphonate diaryl esters, method of 1-aminoalkylphosphonate diaryl ester derivatives preparation and their application” (priority 2012, dated 2013).
Read-outs that look alike come from different tables or passages of the source.

Assays:
Assay type in all cases: biochemical
subtilisin (Sub) = subtilisin (Sub) (Bacillus licheniformis, UniProt P00780); test: Inhibitory activity toward subtilisin, fluorogenic substrate, microplate reader
Sequence of subtilisin (Sub) (P00780 106-379): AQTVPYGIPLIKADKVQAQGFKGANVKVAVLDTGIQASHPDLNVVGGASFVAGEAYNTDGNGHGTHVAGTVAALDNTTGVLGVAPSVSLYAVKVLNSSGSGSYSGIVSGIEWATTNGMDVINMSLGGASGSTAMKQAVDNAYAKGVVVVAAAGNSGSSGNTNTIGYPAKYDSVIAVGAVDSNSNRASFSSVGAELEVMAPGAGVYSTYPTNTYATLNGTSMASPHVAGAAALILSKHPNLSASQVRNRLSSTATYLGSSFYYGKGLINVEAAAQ
Description: (§1) The biological activity of peptidyl derivatives of phosphonic analogs of valine, alanine, phenylalanine, 4-guanidinephenylglycine, leucine, and 1-aminobutyric acid, containing the N-terminal biotin residue were tested for their ability to inhibit proteolytic activity of selected serine proteases, and the control cysteine proteases. All tests were performed using a microplate reader. As enzyme substrates fluorescent peptides were used. The method to measure the activity of the compounds obtained are described below for each of the enzymes tested: human neutrophil elastase (HNE), porcine pancreatic elastase (PPE), subtilisin (Sub), cathepsin G (CatG), proteinase 3 (PR3), chymotrypsin (ChTry) trypsin (Try), papain (Pap) and cathepsin L (CatL). Measurement of the inhibitory activity was performed at different inhibitor concentrations ranging from 12.5 nM to 2000nm.
Measurement of inhibitory activity of compounds toward subtilisin (Sub).
(§2) The inhibitory activity assay is performed at 37°C in 0,05M Tris-HCl, 1M NaCl, 0,01% Triton X-100 buffer, pH 7,5, within 10 min after initial pre-incubation of the enzyme with inhibitor tested at 37°C for 10 min. The enzyme concentration is 5nM. Substrate used Me-Suc-Ala-Ala-Pro-Phe-AMC at 5µM. Measurement is taken at an excitation wavelength of 350nm and 460nm emission.
(§3) The IC50 value is the concentration of inhibitor required to inhibit half of the enzyme activity after 10 minutes incubation.

cathepsin G (CatG) = molecular target: T1, cathepsin G (CatG) (Homo sapiens, UniProt P08311); test: Inhibitory activity toward cathepsin G, fluorogenic substrate, microplate reader
T1 sequence (P08311 21-244): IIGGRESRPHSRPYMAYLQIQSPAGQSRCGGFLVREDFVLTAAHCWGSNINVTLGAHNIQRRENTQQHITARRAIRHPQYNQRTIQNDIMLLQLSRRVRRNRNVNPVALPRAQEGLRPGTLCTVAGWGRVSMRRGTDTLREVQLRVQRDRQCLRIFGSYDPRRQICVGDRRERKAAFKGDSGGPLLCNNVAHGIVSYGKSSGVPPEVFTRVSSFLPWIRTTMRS
Description: as §1
Measurement of inhibitory activity of compounds toward cathepsin G (CatG).
(§4) The inhibitory activity assay is performed at 37°C in 0,1M Tric-HCl, 0,5M NaCl buffer, pH 7,5, within 10 min after initial pre-incubation of the enzyme with inhibitor tested at 37°C for 10 min. The enzyme concentration is 100nM. Substrate used MCA-Phe-Val-Thr-Gnf-Ser-Trp-Anb-NH2 at 2.5µM. Measurement is taken at an excitation wavelength of 325nm and 400nm emission.
as §3

[1] = molecular target: T2, human neutrophil elastase (HNE) (Homo sapiens, UniProt P08246); test: Inhibitory activity toward human neutrophil elastase, fluorogenic substrate, microplate reader
T2 sequence (P08246 30-267): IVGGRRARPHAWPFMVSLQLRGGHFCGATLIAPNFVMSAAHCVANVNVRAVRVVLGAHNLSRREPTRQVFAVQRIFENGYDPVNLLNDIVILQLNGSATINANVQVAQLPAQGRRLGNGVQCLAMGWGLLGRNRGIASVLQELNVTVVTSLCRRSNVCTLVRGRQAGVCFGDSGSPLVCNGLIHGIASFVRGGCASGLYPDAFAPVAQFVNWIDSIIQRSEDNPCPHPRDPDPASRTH
Description: as §1
Measurement of inhibitory activity of compounds toward human neutrophil elastase (HNE).
(§5) The inhibitory activity assay is performed at 37°C in 0,01M HEPES, 0,5M NaCl, 0,03% Triton X-100 buffer, pH 7,5, within 10 min after initial pre-incubation of the enzyme with inhibitor tested at 37°C for 10 min. The enzyme concentration is 0,0025U/ml. Substrate used Me-Suc-Ala-Ala-Pro-Val-AFC at 25µM. Measurement is taken at an excitation wavelength of 400nm and 505nm emission.
as §3

trypsin (Try) = molecular target: T3, trypsin (Try) (Bos taurus, UniProt P00760); test: Inhibitory activity toward trypsin, fluorogenic substrate, microplate reader; conditions: 10 min pre-incubation at 37°C, pH 7,5, Cbz-Arg-AFC 100µM; NI = brak inhibicji (no inhibition)
T3 sequence (P00760 24-246): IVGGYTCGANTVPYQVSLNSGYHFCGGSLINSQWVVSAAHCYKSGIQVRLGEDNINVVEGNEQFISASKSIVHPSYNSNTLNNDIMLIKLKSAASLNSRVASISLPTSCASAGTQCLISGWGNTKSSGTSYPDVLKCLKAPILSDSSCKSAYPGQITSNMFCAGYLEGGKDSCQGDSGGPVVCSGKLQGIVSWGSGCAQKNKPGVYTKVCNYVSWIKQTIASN
Description: as §1
Measurement of inhibitory activity of compounds toward trypsin (Try).
as §5, with “0,1M” for “0,01M”, “25nM.” for “0,0025U/ml.”, “Cbz-Arg-AFC” for “Me-Suc-Ala-Ala-Pro-Val-AFC”, “100µM.” for “25µM.”
as §3

proteinase 3 (PR3) = molecular target: T4, proteinase 3 (PR3) (Homo sapiens, UniProt P24158); test: Inhibitory activity toward proteinase 3, fluorogenic substrate, microplate reader
T4 sequence (P24158 28-248): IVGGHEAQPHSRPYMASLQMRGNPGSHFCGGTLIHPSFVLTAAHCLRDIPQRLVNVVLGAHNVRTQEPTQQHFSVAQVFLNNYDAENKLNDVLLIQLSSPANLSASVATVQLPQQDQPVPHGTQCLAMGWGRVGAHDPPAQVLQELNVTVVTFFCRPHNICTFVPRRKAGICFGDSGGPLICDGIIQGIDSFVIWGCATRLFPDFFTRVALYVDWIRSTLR
Description: as §1
Measurement of inhibitory activity of compounds toward proteinase 3(PR3).
as §4, with “17nM.” for “100nM.”, “Abz-Tyr-Tyr-Abu-Anb-NH2” for “MCA-Phe-Val-Thr-Gnf-Ser-Trp-Anb-NH2”, “30µM.” for “2.5µM.”
as §3

[2] = molecular target: porcine pancreatic elastase (PPE) (Sus scrofa, UniProt P00772); test: Inhibitory activity toward porcine pancreatic elastase, fluorogenic substrate, microplate reader
Sequence of porcine pancreatic elastase (PPE) (P00772 27-266): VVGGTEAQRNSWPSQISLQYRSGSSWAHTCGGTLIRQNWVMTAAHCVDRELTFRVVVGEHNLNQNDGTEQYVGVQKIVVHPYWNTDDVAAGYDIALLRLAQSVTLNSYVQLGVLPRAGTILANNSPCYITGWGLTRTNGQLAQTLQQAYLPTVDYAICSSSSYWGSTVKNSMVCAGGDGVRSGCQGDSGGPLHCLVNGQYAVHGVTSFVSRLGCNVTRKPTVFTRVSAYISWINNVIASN
Description: as §1
Measurement of inhibitory activity of compounds toward porcine pancreatic elastase (PPE).
as §2, with “0,01M” for “0,05M”, “0,05%” for “1M NaCl, 0,01%”, “8,5,” for “7,5,”, “60nM.” for “5nM.”, “Me-Suc-Ala-Ala-Pro-Val-AMC” for “Me-Suc-Ala-Ala-Pro-Phe-AMC”, “100µM.” for “5µM.”
as §3

chymotrypsin (ChTry) = chymotrypsin (ChTry) (Bos taurus, UniProt P00766); test: Inhibitory activity toward chymotrypsin, fluorogenic substrate, microplate reader; conditions: 10 min pre-incubation at 37°C, pH 7,5, Suc-Ala-Ala-Pro-Phe-AMC 5µM; NI = brak inhibicji (no inhibition)
Description: as §1
Measurement of inhibitory activity of compounds toward […] (ChyTry).
as §4, with “HEPES,” for “Tric-HCl,”, “3nM.” for “100nM.”, “Suc-Ala-Ala-Pro-Phe-AMC” for “MCA-Phe-Val-Thr-Gnf-Ser-Trp-Anb-NH2”, “5µM.” for “2.5µM.”, “350nm” for “325nm”, “460nm” for “400nm”
as §3

[3] = 10 min pre-incubation at 37°C, pH 7,5, Me-Suc-Ala-Ala-Pro-Phe-AMC 5µM, NI = brak inhibicji (no inhibition)
[4] = 10 min pre-incubation at 37°C, pH 7,5, MCA-Phe-Val-Thr-Gnf-Ser-Trp-Anb-NH2 2.5µM, NI = brak inhibicji (no inhibition)
[5] = 10 min pre-incubation at 37°C, pH 7,5, Abz-Tyr-Tyr-Abu-Anb-NH2 30µM, NI = brak inhibicji (no inhibition)
[6] = read-out: PPE IC50, 10 min pre-incubation at 37°C, pH 8,5, Me-Suc-Ala-Ala-Pro-Val-AMC 100µM, NI = brak inhibicji (no inhibition)
[7] = 10 min pre-incubation at 37°C, pH 8,5, Me-Suc-Ala-Ala-Pro-Val-AMC 100µM, NI = brak inhibicji (no inhibition)
[8] = 10 min pre-incubation at 37°C, pH 7,5, Me-Suc-Ala-Ala-Pro-Val-AFC 25µM, NI = brak inhibicji (no inhibition)
[9] = read-out: PR3 IC50, 10 min pre-incubation at 37°C, pH 7,5, Abz-Tyr-Tyr-Abu-Anb-NH2 30µM, NI = brak inhibicji (no inhibition)

Row | Compound | IC50 (subtilisin (Sub)) | Sub Kobs/[I] (subtilisin (Sub); [3]) | IC50 (cathepsin G (CatG)) | Cat G Kobs/[I] (cathepsin G (CatG); [4]) | IC50 ([1]; read-out: HNE IC50, 10 min pre-incubation at 37°C, pH 7,5, Me-Suc-Ala-Ala-Pro-Val-AFC 25µM, NI = brak inhibicji (no inhibition)) | Try Kobs/[I] (trypsin (Try)) | IC50 (proteinase 3 (PR3)) | PR3 Kobs/[I] (proteinase 3 (PR3); [5]) | IC50 [2, 6] | ChyTr Kobs/[I] (chymotrypsin (ChTry)) | IC50 [1] | IC50 [2] | PPE Kobs/[I] [2, 7] | IC50 (subtilisin (Sub); read-out: Sub IC50, 10 min pre-incubation at 37°C, pH 7,5, Me-Suc-Ala-Ala-Pro-Phe-AMC 5µM, NI = brak inhibicji (no inhibition)) | HNE Kobs/[I] [1, 8] | IC50 (proteinase 3 (PR3); [9]) | IC50 (cathepsin G (CatG); read-out: Cat G IC50, 10 min pre-incubation at 37°C, pH 7,5, MCA-Phe-Val-Thr-Gnf-Ser-Trp-Anb-NH2 2.5µM, NI = brak inhibicji (no inhibition))
1 | CSc1ccc(OP(=O)(Oc2ccc(SC)cc2)C(NC(=O)C(NC(=O)C(NC(=O)C(Cc2ccccc2)NC(=O)CCC(=O)NCCCCCNC(=O)CCCCC2SCC3NC(=O)NC32)C(C)C)C(C)O)c2ccc(NC(=N)N)cc2)cc1 (centres unmarked) [Compound 11, bis(4-(methylthio)phenyl) 10-benzyl-1-(4-guanidinophenyl)-4-(1-hydroxyethyl)-7-isopropyl-3,6,9,12,15,23-hexaoxo-27-(2-oxohexahydro-1H-thieno[3,4-d]imidazol-4-yl)-2,5,8,11,16,22-hexaazaheptacosylphosphonate] | 480 ± 15.5 nM | 2.4*10^3 M^-1S^-1 | 4740 ± 556 nM | 2.4*10^2 M^-1S^-1 | > 5000 nM | 2.7*10^3 M^-1S^-1 | 603 ± 49 nM | 3.8*10^3 M^-1S^-1 | > 5000 nM | – | – | – | – | – | – | – | –
2 | COC(=O)c1ccc(OP(=O)(Oc2ccc(C(=O)OC)cc2)C(CC(C)C)NC(=O)C2CCCN2C(=O)C(NC(=O)CCCCC2SCC3NC(=O)NC32)C(C)C)cc1 (centres unmarked) [Compound 9, dimethyl 4,4'-(((3-methyl-1-(1-(3-methyl-2-(5-(2-oxohexahydro-1H-thieno[3,4-d]imidazol-4-yl)pentanamido)butanoyl)pyrrolidine-2-carboxamido)butyl)phosphoryl)bis(oxy))dibenzoate] | 21.2 ± 1.2 nM | 5.4*10^4 M^-1S^-1 | 720 ± 60 nM | 1.6*10^3 M^-1S^-1 | – | 4.4*10^4 M^-1S^-1 | 59.5 ± 8 nM | 3.9*10^4 M^-1S^-1 | – | 5.2*10^4 M^-1S^-1 | 5.61 ± 0.02 nM | > 5000 nM | <200 M^-1S^-1 | – | – | – | –
3 | CSc1ccc(OP(=O)(Oc2ccc(SC)cc2)C(CC(C)C)NC(=O)C2CCCN2C(=O)C(NC(=O)CCCCC2SCC3NC(=O)NC32)C(C)C)cc1 (centres unmarked) [Compound 12, bis(4-(methylthio)phenyl) (3-methyl-1-(1-(3-methyl-2-(5-(2-oxohexahydro-1H-thieno[3,4-d]imidazol-4-yl)pentanamido)butanoyl)pyrrolidine-2-carboxamido)butyl)phosphonate] | – | – | 436 ± 22 nM | 2.6*10^3 M^-1S^-1 | – | 1.9*10^3 M^-1S^-1 | – | – | – | 4.5*10^4 M^-1S^-1 | 66.5 ± 6.5 nM | 289 ± 10 nM | 4*10^3 M^-1S^-1 | > 5000 nM | 1.7*10^4 M^-1S^-1 | > 5000 nM | –
4 | CCC(NC(=O)C1CCCN1C(=O)C(NC(=O)CCCCC1SCC2NC(=O)NC21)C(C)C)P(=O)(Oc1ccc(SC)cc1)Oc1ccc(SC)cc1 (centres unmarked) [Compound 13, bis(4-(methylthio)phenyl) (1-(1-(3-methyl-2-(5-(2-oxohexahydro-1H-thieno[3,4-d]imidazol-4-yl)pentanamido)butanoyl)pyrrolidine-2-carboxamido)propyl)phosphonate] | 147 ± 4 nM | 7.8*10^3 M^-1S^-1 | – | – | – | 3*10^2 M^-1S^-1 | 227 ± 17 nM | 1.0*10^4 M^-1S^-1 | – | 1.2*10^3 M^-1S^-1 | 2.75 ± 0.05 nM | 23.5 ± 1.95 nM | – | – | 4.2*10^5 M^-1S^-1 | – | > 5000 nM
5 | CSc1ccc(OP(=O)(Oc2ccc(SC)cc2)C(CC(C)C)NC(=O)C2CCCN2C(=O)CCCCC2SCC3NC(=O)NC32)cc1 (centres unmarked) [Compound 8, bis(4-(methylthio)phenyl) (3-methyl-1-(1-(5-(2-oxohexahydro-1H-thieno[3,4-d]imidazol-4-yl)pentanoyl)pyrrolidine-2-carboxamido)butyl)phosphonate] | 11.7 ± 0.61 nM | 9.9*10^4 M^-1S^-1 | 1100 ± 139 nM | 1.0*10^3 M^-1S^-1 | – | 1*10^3 M^-1S^-1 | – | – | > 5000 nM | 2.9*10^3 M^-1S^-1 | 3800 ± 250 nM | – | – | – | 3.0*10^2 M^-1S^-1 | > 5000 nM | –
